Values joined by “and” are separate entries in the source; they are usually repeats but may differ in a detail not shown here. Identical values can stand only once.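 Results reflect a 48-hour exposure of cells in 96-well plates to compound at five concentrations. Here, GI50 denotes the concentration required for 50% inhibition of growth. TGI denotes the concentration required for complete inhibition of growth.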
Tests used:
Experiment in all cases: NCI-60 cell line screen, 48 h
DU-145 prostate = tested on: DU-145 prostate
HCT-116 colon = tested on: HCT-116 colon
HL-60(TB) leukemia = tested on: HL-60(TB) leukemia
HOP-62 NSCLC = tested on: HOP-62 NSCLC
HOP-92 NSCLC = tested on: HOP-92 NSCLC
MDA-MB-435 = tested on: MDA-MB-435
SF-295 CNS = tested on: SF-295 CNS
SNB-75 CNS = tested on: SNB-75 CNS
SR leukemia = tested on: SR leukemia
SW-620 colon = tested on: SW-620 colon

Row | Structure (SMILES) | GI50 (DU-145 prostate) [µM] | TGI (DU-145 prostate) [µM] | GI50 (HCT-116 colon) [µM] | TGI (HCT-116 colon) [µM] | GI50 (HL-60(TB) leukemia) [µM] | TGI (HL-60(TB) leukemia) | GI50 (HOP-62 NSCLC) [µM] | TGI (HOP-62 NSCLC) [µM] | GI50 (HOP-92 NSCLC) [µM] | TGI (HOP-92 NSCLC) [µM] | GI50 (MDA-MB-435) [µM] | TGI (MDA-MB-435) [µM] | GI50 (SF-295 CNS) [µM] | TGI (SF-295 CNS) [µM] | GI50 (SNB-75 CNS) [µM] | TGI (SNB-75 CNS) [µM] | GI50 (SR leukemia) | TGI (SR leukemia) | GI50 (SW-620 colon) [µM] | TGI (SW-620 colon) [µM]
1 | Cc1cn2c(/C=C3/C(=O)Nc4ccc(F)cc43)c(C)nc2s1 | 9.58 | 32.3 | 2.92 | > 50 | 1.98 | 8.15 µM | 8.81 | > 50 | 4.74 | 29 | 1.26 | 2.97 | 3.76 | 34.6 | 3.76 | 15.6 | 1.67 µM | 5.14 µM | 3.18 | > 50
2 | COc1ccc(CNc2cnc3cc(N)cc(N)c3n2)cc1 | 19.4 | 49.2 | 19.4 | 40.8 |  |  | 35.9 | > 100 | 24.1 | 54.3 | 21.7 | 39 | 21.9 | 55.9 | 42.8 | > 100 |  |  | 23.5 | 50.4
3 | Nc1nc(N)c(N=Nc2ccc(C(=O)O)c(O)c2)c(N)n1 |  | > 100 |  | > 100 |  |  |  | > 100 |  | > 100 |  | > 100 |  | > 100 |  | > 100 |  | > 100 µM |  | > 100
4 | NC(=Nc1nc(-c2ccccn2)cc2ccccc12)c1ccccn1 | 0.135 |  | 0.00151 | > 100 | 0.00104 | 0.0598 µM and 0.251 µM | 0.319 | 38.1 | 0.0765 | 5.92 | 0.283 | > 100 |  |  |  |  | 0.0619 µM and < 0.0145 µM | 0.243 µM and 0.722 µM | 0.0505 | > 100
5 | O=C(Nc1cccnc1)c1ccc2ccc3ccc(C(=O)Nc4cccnc4)nc3c2n1 | 0.195 | > 100 |  |  | 0.132 | > 100 µM | 0.13 | > 100 |  |  | 0.184 | > 100 | 0.252 | > 100 | 0.273 | > 100 | 0.155 µM | > 100 µM | 0.0781 | > 100
6 | O=C(NN1C(=O)CSC12CCCC2)C(O)c1ccccc1 (stereo unspecified) | > 100 | > 100 | > 100 | > 100 |  |  | > 100 | > 100 | > 100 | > 100 | > 100 | > 100 | > 100 | > 100 | > 100 | > 100 |  |  | > 100 | > 100
7 | N#Cc1c(N)nc(N2CCSCC2)c(C#N)c1-c1ccc(O)cc1 | 27.1 | > 100 |  |  | 17 | 53.1 µM | 12.6 | 28.3 | 10.1 | 47.5 | 19 | 49.6 | 18.4 | 55.7 | 10.9 | 30.4 | 11.2 µM | 38.1 µM | 27.5 | > 100
8 | O=C(Nc1cccc(Cl)c1)c1cc(N=Nc2ccc([N+](=O)[O-])cc2Cl)ccc1O | 1.43 | 8.72 | 2.81 | 8.25 |  |  | 3.27 | 9.46 | 1.24 | 4.12 | 2.34 | 5.96 | 1.49 | 3.22 | 2.65 | 20.5 | 1.6 µM | 4.29 µM | 2.95 | 
9 | CC(C)CCC(=O)[C@@H](C)[C@H]1[C@@H](OC2OCC(O)C(O)C2NS(C)(=O)=O)C[C@H]2[C@@H]3CC=C4C[C@@H](O)CC[C@]4(C)[C@H]3CC[C@]12C (stereo partly specified) | 3.42 | 20.4 | 0.715 | 5.74 |  |  | 1.26 | 6.34 | 3.02 | 10.6 | 0.88 | 2.16 | 0.141 | 0.595 | 0.571 | 9.58 | 1.03 µM | 8.39 µM | 1.54 | 6.02
10 | CC[C@]12C=CCN3CC[C@@]4(c5ccc(OC)cc5N(C)[C@H]4[C@@](O)(C(=O)OC)[C@@H]1OC(=O)CCC(=O)N[C@H](Cc1c[nH]c4ccccc14)C(=O)OC)[C@@H]32 | 4.44 | 20.3 | 3.02 | > 100 |  |  | 6.32 | 24.5 | 4.02 | 24.4 | 5.42 | 22.5 | 15.8 | 39.5 | 2.23 | 14.1 | 3.55 µM | > 100 µM | 3.03 | 10.6
11 | CO[C@@H]1[C@H]2[C@@H](C)c3ccoc3C[C@@H]2[C@@]2(C)CC[C@H](OC(=O)c3ccccc3)[C@](C)(C(=O)O)[C@]2(O)[C@@H]1OC(=O)c1ccccc1 | 12.1 | > 50 | 8.89 | 15.8 | 14.7 | > 50 µM |  |  |  |  | 7.97 | 19.5 | 10.3 | 41.4 | > 50 | > 50 | 10.9 µM | > 50 µM | 9.3 | 20
12 | CCOC(=O)c1csc(NC(=O)COc2cccc(/C=C3\CSc4ccccc4C3=O)c2)n1 | 0.409 | 0.932 | 1.63 | 3.04 | 0.638 | 2.11 µM | 1.33 | 3.9 |  |  | 2.05 | 5.06 | 0.908 | 2.44 | 0.275 | 4.45 |  |  | 0.992 | 2.7
13 | CCc1nc2cc(/C=C/C(=O)NO)ccc2c(=O)n1CCc1ccc(F)cc1 | 1.94 | 8.67 | 0.49 | 2.93 | 4.59 | > 100 µM | 1.5 | 4.44 | 2.45 | 6.28 | 1.7 | 4.38 | 1.87 | 3.61 |  |  | 1.74 µM | > 100 µM |  | 
